In brackets after ≈: the same amount, converted by molar mass. Read-outs that look alike come from different tables or passages of the source.
Experiments:
[1] = Thermodynamic properties of sublimation and vaporization from Clarke and Glew fit of vapor pressures
Text: The experimental crystalline and liquid vapor pressures were independently fitted by the Clarke and Glew Equation (1) in its truncated form:(1) Rlnp/p^°=−ΔcdgGm°θ/θ+ΔcdgHm°θ1/θ−1/T+ΔcdgCp,m°θθ/T−1+lnT/θ where R is the molar gas constant, p is the vapor pressure at the temperature T, p° is a selected reference pressure (p° = 10^5 Pa in this work), and θ is a reference temperature. The differences between gaseous and condensed phases of standard molar Gibbs energy, enthalpy, and the isobaric heat capacity are represented, respectively, by ΔcdgGm° , ΔcdgHm° , and ΔcdgCp,m° .
The values of ΔcdgCp,m° are generally achieved only when accurate experimental data measured over ca. 50 K are reachable. […] For comparison reasons, the values of ΔcrgCp,m° were also calculated as ΔcrgCp,m°(θ)=Cp,m°(g)−Cp,m°(cr) , where the terms Cp,m°(g) and Cp,m°(cr) are, respectively, the gas and crystalline isobaric molar heat capacities. […] The crystalline molar heat capacities, Cp,m°(cr) , were determined at different temperatures using differential scanning calorimetry, enabling the fit to second-order polynomials in temperature, represented by Equation (3) and reported in Table 3. […] The values of Cp,m°(cr,298.15 K) were derived from these equations, allowing ΔcrgCp,m°(298.15 K) to be calculated.

[2] = Equilibrium solubility in water, saturation shake-flask method with UV-vis; settings: 25 °C, thermodynamic from solid
Description: The concentration was measured by absorbances at 260 nm for 4-chlorobenzaldehyde, 263 nm for 4-bromobenzaldehyde and 2,4-dichlorobenzaldehyde, 297 nm for 2,6-dichlorobenzaldehyde, and 306 nm for 2,3-dichlorobenzaldehyde, using a Cary-60 UV–vis (Agilent) spectrophotometer. X-ray diffraction (XRD) and differential scanning calorimetry of residual solids were used to identify the eventual phase transformations. The purified samples of each compound studied were used for all experimental determinations, including the solubility measurements. After reaching the equilibrium, the residual solid was dried and analyzed using both DSC and XRD. The melting properties obtained from DSC were compared with those of the original purified sample, following the same procedure for the XRD analysis. […] As an example, the supporting information includes two thermograms and two XRD patterns for 2,4-dichlorobenzaldehyde (Figures S1 and S2). […] Equation (4) was derived from Equation (5), which is widely applicable to the solubility of solids.(4) ΔhydrGm°/kJ·mol^−1=9.17−5.71·log10(Scr/mol·m^−3)−ΔcrgGm°/kJ·mol^−1 (5) S=p^°/RTexpΔcrgGm°+ΔhydrGm°/−RT
An excess amount of each compound was added to a known volume of water in triplicate. […] After stirring, the solid phase was allowed to settle for 2 h. The pH of the saturated solutions was measured using a Mettler Toledo (Greifensee, Switzerland) FiveEasy F20 pH Meter calibrated with standard aqueous solutions (pH 7.00 and 4.01 or 10.1). Those solutions were then filtered through a 0.22 μm syringe hydrophilic filter (13 mm, PTFE, Labfil, Zhejiang, China) and diluted to the required concentration. The concentration of the compounds, expressed in molarity, was measured by absorbances using a Cary-60 UV–vis spectrophotometer (Agilent Technologies, Santa Clara, CA, USA) at 298.15 K (single cell Peltier accessory, ±0.15 K). The results reported in Table 6 are averaged from at least three replicates. Calibration was performed using solutions of known concentrations of each substance in water. These solutions were prepared by adding a precise mass of the substance and a specific volume of the solvent to a flask, then mixing until the substance was fully dissolved. The absorbance of these solutions was measured, and calibration curves were created.

[3] = 20 °C, cited from earlier work
[4] = cited from earlier work
[5] = crystalline phase, θ = 291.18 K (mean temperature)
[6] = crystalline phase, θ = 298.15 K, p° = 10^5 Pa
[7] = crystalline phase, θ = 319.43 K (triple point)
[8] = liquid phase including supercooled liquid, θ = 298.15 K, p° = 10^5 Pa
[9] = liquid phase, θ = 319.43 K (triple point)
[10] = liquid phase, θ = 331.52 K (mean temperature)

O=Cc1ccc(Cl)cc1 [4-Chlorobenzaldehyde]
triple point pressure ptp ([1]; Ttp = 319.43 K): 1.23 × 10^2 Pa
p (Equation (1)) vapor pressure [1, 5]: 8.54 Pa
ΔcdgGm°(θ) standard molar Gibbs energy of sublimation [1, 5]: 5.421 ± 0.0024 kcal/mol
ΔcdgHm°(θ) standard molar enthalpy of sublimation [1, 5]: 17.6 ± 0.024 kcal/mol
p (Equation (1)) vapor pressure ([1]; crystalline phase, θ = 298.15 K): 17.3 Pa
ΔcdgGm°(θ) standard molar Gibbs energy of sublimation [1, 6]: 5.131 ± 0.0024 kcal/mol
ΔcdgHm°(θ) standard molar enthalpy of sublimation [1, 6]: 17.5 ± 0.048 kcal/mol
ΔcdgSm°(θ) (Equation (2)) standard molar entropy of sublimation [1, 6]: 173.8 ± 0.7 J·K^−1·mol^−1
p (Equation (1)) vapor pressure [1, 7]: 123 Pa
ΔcdgGm°(θ) standard molar Gibbs energy of sublimation [1, 7]: 4.252 ± 0.0048 kcal/mol
ΔcdgHm°(θ) standard molar enthalpy of sublimation [1, 7]: 17.4 ± 0.14 kcal/mol
p (Equation (1)) vapor pressure ([1]; liquid phase including supercooled liquid, θ = 298.15 K): 27.3 Pa
ΔcdgGm°(θ) standard molar Gibbs energy of vaporization [1, 8]: 4.861 ± 0.0072 kcal/mol
ΔcdgHm°(θ) standard molar enthalpy of vaporization [1, 8]: 13.6 ± 0.14 kcal/mol
ΔcdgSm°(θ) (Equation (2)) standard molar entropy of vaporization [1, 8]: 122.0 ± 2.0 J·K^−1·mol^−1
p (Equation (1)) vapor pressure [1, 9]: 123 Pa
ΔcdgGm°(θ) standard molar Gibbs energy of vaporization [1, 9]: 4.252 ± 0.0048 kcal/mol
ΔcdgHm°(θ) standard molar enthalpy of vaporization [1, 9]: 13.2 ± 0.048 kcal/mol
p (Equation (1)) vapor pressure [1, 10]: 262 Pa
ΔcdgGm°(θ) standard molar Gibbs energy of vaporization [1, 10]: 3.917 ± 0.0024 kcal/mol
ΔcdgHm°(θ) standard molar enthalpy of vaporization [1, 10]: 13 ± 0.024 kcal/mol
solubility at 72 h [2]: 8.83 mM (≈ 1240 µg/mL)
water solubility ([3]; converted from 935 mg/L): 6.652 mM
water solubility [3]: 935 µg/mL
water solubility, estimated value ([4]; 25 °C, converted from 1340 mg/L): 9.532 mM
water solubility, estimated value ([4]; 25 °C): 1340 µg/mL
water solubility, estimated value ([4]; ALI method): 8.15 mM
water solubility, estimated value ([4]; ESOL method): 3.45 mM
water solubility, estimated value ([4]; SILICO-IT method): 1.16 mM

Reference: PMC11990670, “Exploring the Volatility, Phase Transitions, and Solubility Properties of Five Halogenated Benzaldehydes” (Molecules, 2025)
